Experimental data: patent publication US20230172920A1, “DOSING REGIMEN FOR TREATING A DISEASE MODULATED BY CSF-1R” (Novartis AG, priority 2020, published 2023)
Where two headings read alike, the source gives them in different places.

Columns and labels:
[1] = Blood and brain exposure in mice (RD-2019-00100); type: in vivo; conditions: for Kp at 5 days: read-out: ratio of brain to blood exposures
Procedure: Several studies were performed to understand PK/PD relationships for CNS microglia clearance in mice. In the first study (RD-2019-00100) mice were treated once daily (qd) for between 1 and 5 consecutive days with a dose of 169 mg/kg BLZ945. Additionally, two dose groups received 169 mg/kg BLZ945 for 5 consecutive days followed by either 3 or 7 days of drug withdrawal (washout). […] Pharmacokinetic analysis was performed on blood and brain samples taken from each group at 3 hours after the final dose on the indicated necropsy day. […] Exposures dropped by more than 1000-fold following the washout period (FIG. 8 B).
FIG. 8: (A) Microglial depletion in the cortex, as assessed by Iba1/Aif-1 immunohistological staining at necropsy. Sections were analyzed for total number of microglia cell bodies per sample area. Values are group means±SD (n=3). (B) Exposure of BLZ945 in blood and brain 3 hours after the last dose on the day of necropsy. Values are group means (n=3).
In a follow-up study (RD-2019-00100), mice were treated with BLZ945 for 5 consecutive days with a range of doses from 7 to 169 mg/kg. The two lowest doses of 7 mg/kg and 20 mg/kg were ineffective for microglial depletion. […] Here the ratio of brain to blood exposures was approximately 30% at the four lowest doses and approximately 55% at the highest dose (FIG. 9 B).
FIG. 9: Dose-dependent reduction of microglia. (A) Mice were treated for 5 consecutive days with BLZ945 at the indicated doses. Samples were analyzed histologically by Iba1/Aif-1 staining and quantified for total microglia cell bodies per sample area. Data are group means±SD (n=3). (B) Exposure of BLZ945 in blood and brain following 5 consecutive days of dosing at multiple doses. Values are group means±SD (n=3).

[2] = tested on: MC38 syngeneic mouse model; assay: MC38 syngeneic mouse model, tumor growth; type: in vivo, C57BL/6N mice; conditions: repeat with suboptimal anti-PD-1 dose (5 mg/kg); BLZ945 4 days on/3 days off
Procedure: In another set of experiments using the MC38 syngeneic mouse model in C57BL/6N mice two different schedules of BLZ945 were compared for efficacy (FIG. 3) using once weekly dosing of BLZ945 and 4 days on/3 days off dosing of BLZ945 alone and in combination with anti-PD-1. […] On day 14 post treatment start, there was a trend of tumor growth inhibition, corresponding to a % T/C vs. control of 28%.
Doses of 200 mg/kg BLZ945 and 10 mg/kg anti-PD-1 were given on the schedules indicated and tumor volumes measured on day 14 after study initiation. Statistical significance was calculated using one-way ANOVA with post hoc Dunnett's test for comparison of treatment versus control group.
Efficacy testing was repeated with a suboptimal dose of anti-PD-1 (5 mg/kg) in order to test for an additive effect of BLZ945 to be observed when given in combination.

[3] = AST/ALT elevation across single agent dose groups (clinical data, CTCAE); type: in vivo, human
Procedure: A comparison of AST and ALT elevation across single agent dose groups for the compound of Formula (I) was performed for the once per week (Q1WV) dosing regimen and the 4 days on/10 days off dosing regimen over a range of dosages. FIGS. 6 and 7 show the AST and ALT elevations, respectively. The Common Terminology Criteria for Adverse Events (CTCAE) was used to evaluate AST and ALT levels.

clinical = assay: clinical; parameters: species or system human; conditions: in vivo
Procedure: On days that PK samples are obtained, the patient should take BLZ945 during the clinic visit after the pre-dose PK samples and prior to post-dose PK samples, when instructed by the study staff. Patients should take BLZ945 on an empty stomach (i.e. fast from food and drink, except water) at least 1 hour before or 2 hours after a meal. Each dose should be taken with a glass of water. Patients should be instructed to swallow whole capsules and not to chew or open them.
The preliminary pharmacokinetics (PK) of single dose and multiple doses of oral BLZ945 when administered alone and in combination with spartalizumab has been assessed in the ongoing study CBLZ945X2101.

For CNC(=O)c1cc(Oc2ccc3nc(N[C@@H]4CCCC[C@H]4O)sc3c2)ccn1 [BLZ945, 4-((2-(((1R,2R)-2-hydroxycyclohexyl)amino)benzo[d]thiazol-6-yl)oxy)-N-methylpicolinamide], which “drop of exposures following washout” value ([1]; 169 mg/kg qd 5 days, then 3 or 7 days washout) is on record?
The value was “more than 1000 fold”.

What about the “accumulation with daily dosing (blood and brain exposures)” value ([1]; 169 mg/kg qd, consecutive dosing days) of the same compound?
The value was “lack of accumulation”.

And the “dose dependence of blood and brain exposures” value ([1]; 7 to 169 mg/kg, 5 consecutive days)?
The value was “linear increases in both blood and brain exposures with increased doses”.

What about the Kp at 3 h ([1]; mouse, brain relative to blood, 169 mg/kg qd, 1-5 days, 3 hours after final dose) of the same compound?
The Kp at 3 h was ~0.5.

What about the Kp at 5 days ([1]; mouse, brain relative to blood, four lowest doses (7-100 mg/kg), 5 consecutive days) of the same compound?
The Kp at 5 days was ~0.3.

What about the Kp at 5 days ([1]; mouse, brain relative to blood, highest dose (169 mg/kg), 5 consecutive days) of the same compound?
Its Kp at 5 days is ~0.55.

What about the tumor growth inhibition [2] of the same compound?
Its tumor growth inhibition is “not either of the single agent groups dosed with BLZ945 or anti-PD-1 resulted in a statistically significant tumor growth inhibition”.

And the “AST and ALT elevations” value ([3]; 4 days on/10 days off compared with Q1W dosing regimen, single agent)?
Its value is “better controlled”.

What about the ALT/AST levels ([3]; 4 days on/10 days off schedule) of the same compound?
Its ALT/AST levels is “recover to baseline before next dose”.

And the “AST and ALT levels” value ([3]; Q1W dose, even at lowest dose of 300 mg)?
Its value is “spikes above the G2 level”.

And the “mean accumulation index (Racc)” value (clinical; human)?
The value was 1.07-1.24.

What about the AUC(0-t) (clinical; human, po, 150 mg) of the same compound?
Its AUC(0-t) is 102 µg·h/mL.

And the Cmax (clinical; human, po, 150 mg)?
The Cmax was 6950 ng/mL.

And the AUC(0-t) (clinical; human, po, 300 mg)?
The AUC(0-t) was 203 µg·h/mL.

What about the Cmax (clinical; human, po, 300 mg) of the same compound?
The Cmax was 13900 ng/mL.

What about the AUC(0-t) (clinical; human, po, 600 mg) of the same compound?
Its AUC(0-t) is 378 µg·h/mL.

And the Cmax (clinical; human, po, 600 mg)?
The Cmax was 24500 ng/mL.

And the AUC(0-t) (clinical; human, po, 800 mg)?
Its AUC(0-t) is 413 µg·h/mL.

And the Cmax (clinical; human, po, 800 mg)?
Its Cmax is 22700 ng/mL.

And the AUC(0-t) (clinical; human, po, 1200 mg)?
Its AUC(0-t) is 599 µg·h/mL.

And the Cmax (clinical; human, po, 1200 mg)?
The Cmax was 32700 ng/mL.

What about the absorption (clinical; po) of the same compound?
The absorption was “rapid absorption”.
